Assay results as given in patent US20130303557A1, “PHARMACEUTICAL COMPOSITIONS AND METHODS OF TREATING DRY EYE DISORDERS” (PFIZER INC., priority 2010, published 2013).

Columns and labels:
Format in all cases: in vivo
MRL/Ipr dry eye mice [1] = assay: Comparative tear production, CP-690550 versus Restasis, in MRL/Ipr dry eye mice (phenol red thread); settings: CP-690550 0.01% vs Restasis (cyclosporine 0.05%), 2 μl twice a day for 30 days; FIG. 3
Protocol: Tear measurement was done using phenol red impregnated thread (Quick Zone®) and baseline measurement was performed before each drug application. Drugs or vehicles were applied at 2 μl, two times a day.
Vehicle-treated normal C57black/6 and MRL/Ipr dry eye mice were used as normal control and dry eye control, respectively.
Control animals included normal C57Black/6 mice, and MRL/Ipr mice, treated with PBS vehicle and MRL/Ipr mice treated with Refresh Endura® (vehicle for Restasis) (5-10 mice/group).

MRL/Ipr dry eye mice [2] = assay: Dose response of CP690550 on tear production in MRL/Ipr mice (Formulations 1, 3 and 4); settings: at 2 days after treatment, all comparisons, FIGS. 4-6
Protocol: As with Example 4 above, vehicle-treated normal C57black/6 and MRL/Ipr dry eye mice (5-10 mice/group) were used as normal control and dry eye control, respectively. […] Treatment for Formulation 1 was carried for two weeks, at […], twice a day.

dry-induced C57 mice = assay: Induced dry eye mouse model (scopolamine plus fans), tear production; settings: at 2 days of treatment; 1 μl once a day, Formulations 3 and 5; FIGS. 7 and 8
Protocol: An injection was prepared comprising 2.5 mg/ml scopolamine (sigma) in injectable saline (1-1.5 ml per animal). In normal C57 mice (200-250) ul of scopolamine was injected four times every 2.5 hrs in alternating hind quarters. The mice were placed in special cages (with holes in front and back) and placed in a hood. Fans were placed in front of each cage, and turned on for 16 hours over night for five days. Measurements were taken daily.
As with Examples 4 and 5 above, animals were treated with drug or vehicle at 1 μl, once a day for 2 weeks.

## C[C@@H]1CCN(C(=O)CC#N)C[C@@H]1N(C)c1ncnc2[nH]ccc12 [CP690550, 3-{(3R,4R)-4-Methyl-3-[methyl-(7H-pyrrolo[2,3-d]pyrimidin-4-yl)-amino]-piperidin-1-yl}-3-oxo-propionitrile]
MRL/Ipr dry eye mice [1]
  response rate as compared to Restasis: much faster response rate as compared to Restasis®
  volume of tear production compared with Restasis: significant improvement in the volume of tear production over Restasis®
MRL/Ipr dry eye mice [2]
  improvement in tear production: significant improvement in tear production
dry-induced C57 mice
  increase in tear production: significant increase in tear production
